In EPA's ToxValDB 9.5 (doi:10.2903/j.efsa.2008.122r):
In brackets after ≈: the same amount, converted by molar mass.

Key:
Aphidius rhopalosiphi = settings: not reported
Apis mellifera = settings: acute; duration: 48 hours; dermal; mortality
Cyprinus carpio = settings: acute; duration: 96 hours; mortality
Daphnia magna = settings: chronic/long-term; duration: 21 days
Oncorhynchus mykiss = settings: chronic/long-term; duration: 35 days; growth
Rattus norvegicus = settings: for NOAEL: body weight

With `O=C(Nc1ccc(F)cc1F)c1cccnc1Oc1cccc(C(F)(F)F)c1` [Diflufenican] the LEL (Aphidius rhopalosiphi; mortality) was 188 g/ha, the LEL (Aphidius rhopalosiphi; reproduction) was 188 g/ha and the LD50 (Apis mellifera) was > 100 µg/piece. The LD50 (Bird; acute, oral, unspecified, mortality) was > 2150 mg/kg, the NOEC (Bird; reproductive) was 91.8 mg/kg and the LC50 (Cyprinus carpio) was 0.0985 µg/mL (≈ 0.25 µM). The NOEC (Daphnia magna) was 0.052 mg/L, the NOEC (Oncorhynchus mykiss) was 0.015 mg/L and the LD50 (Rattus norvegicus; acute, oral, mortality) was > 5000 mg/kg. The NOAEL (Rattus norvegicus; chronic, duration: 2 years) was 23.3 mg/kg-day, the NOAEL (Rattus norvegicus; reproduction developmental, M) was 35.5 mg/kg-day and the NOAEL (Rattus norvegicus; subchronic, duration: 13 weeks, oral) was 19.5 mg/kg-day. The LC50 (Tagia sp.; acute, duration: 14 days, mortality) was > 1000 mg/kg and the NOEC (Tagia sp.; chronic/long-term, reproduction) was 1000 mg/kg.
